Assays:
[1] = system: poly dAdT–poly dAdT (DNA, polymer) AT; assay: UV thermal melting at 260 nm; conditions: Na+ (sodium cacodylate, I = 0.05 M); sodium cacodylate pH 7.0; r = [compound]/[polynucleotide] = 0.3; per base
[2] = system: poly A–poly U (poly rA–poly rU) (RNA, polymer) A/U; assay: UV thermal melting at 260 nm; conditions: Na+ (sodium cacodylate, I = 0.05 M); sodium cacodylate pH 7.0; r = [compound]/[polynucleotide] = 0.3; per base
[3] = system: poly dA–poly dT (DNA, polymer) A/T; assay: UV thermal melting at 260 nm; conditions: Na+ (sodium cacodylate, I = 0.05 M); sodium cacodylate pH 7.0; r = [compound]/[polynucleotide] = 0.3; per base
[4] = system: poly dG–poly dC (DNA, polymer) G/C; assay: UV–vis titration, Scatchard fit; conditions: Na+ (sodium cacodylate, I = 0.05 M); sodium cacodylate pH 7.0, 25 °C; polynucleotide as nucleobases/phosphates; per base
[5] = system: poly dA–poly dT (DNA, polymer) A/T; assay: UV–vis titration, Scatchard fit; conditions: Na+ (sodium cacodylate, I = 0.05 M); sodium cacodylate pH 7.0, 25 °C; polynucleotide as nucleobases/phosphates; per base
[6] = system: poly A–poly U (poly rA–poly rU) (RNA, polymer) A/U; assay: UV–vis titration, Scatchard fit; conditions: Na+ (sodium cacodylate, I = 0.05 M); sodium cacodylate pH 7.0, 25 °C; polynucleotide as nucleobases/phosphates; per base
[7] = system: poly dAdT–poly dAdT (DNA, polymer) AT; assay: UV–vis titration, Scatchard fit; conditions: Na+ (sodium cacodylate, I = 0.05 M); sodium cacodylate pH 7.0, 25 °C; polynucleotide as nucleobases/phosphates; per base

ΔTm [1] [°C]	ΔTm [2] [°C]	ΔTm [3] [°C]	log Ks [4]	log Ks [5]	log Ks [6]	log Ks [7]	Compound
–	–	–	5.8	5.4	6.6	–	Nc1ncnc2c1ncn2CCCCCOc1ccccc1C(=O)C1=CNc2ccccc2N=CC(C(=O)c2ccccc2OCCCCC[n+]2ccccc2)=CNc2ccccc2N=C1
0	0	0	5.6	5.0	5.7	–	Nc1ncnc2c1ncn2CCCCCCOc1ccccc1C(=O)C1=CNc2ccccc2N=CC(C(=O)c2ccccc2OCCCCCC[n+]2ccccc2)=CNc2ccccc2N=C1

Further lines, the molecule ahead of its results:

Compound	ΔTm [1] [°C]	ΔTm [2] [°C]	ΔTm [3] [°C]	log Ks [4]	log Ks [5]	log Ks [6]	log Ks [7]
CCCCCCOc1ccccc1C(=O)C1=CNc2ccccc2N=CC(C(=O)c2ccccc2OCCC[n+]2ccccc2)=CNc2ccccc2N=C1	0	0	0	–	–	–	–
C[N+](C)(C)CCCOc1ccccc1C(=O)C1=CNc2ccccc2N=CC(C(=O)c2ccccc2OCCCn2cnc3c(N)ncnc32)=CNc2ccccc2N=C1	< 2	0	0	5.7	5.9	5.8	5.5
Nc1ncnc2c1ncn2CCCOc1ccccc1C(=O)C1=CNc2ccccc2N=CC(C(=O)c2ccccc2OCCC[n+]2ccccc2)=CNc2ccccc2N=C1	< 3	0.5	0.7	5.5	6.2	6.0	6.1
